Laboratory results: ChEMBL document CHEMBL1201862, “PubChem BioAssay data set” (2004)
Values joined by “and” are separate entries in the source; they are usually repeats but may differ in a detail not shown here. Equal entries are not always repeated. Active and inactive are the calls of the source.

Assays:
[1] = target: T1, Apoptotic protease-activating factor 1 (Homo sapiens, UniProt O14727); type: functional
T1 sequence (O14727 whole entry): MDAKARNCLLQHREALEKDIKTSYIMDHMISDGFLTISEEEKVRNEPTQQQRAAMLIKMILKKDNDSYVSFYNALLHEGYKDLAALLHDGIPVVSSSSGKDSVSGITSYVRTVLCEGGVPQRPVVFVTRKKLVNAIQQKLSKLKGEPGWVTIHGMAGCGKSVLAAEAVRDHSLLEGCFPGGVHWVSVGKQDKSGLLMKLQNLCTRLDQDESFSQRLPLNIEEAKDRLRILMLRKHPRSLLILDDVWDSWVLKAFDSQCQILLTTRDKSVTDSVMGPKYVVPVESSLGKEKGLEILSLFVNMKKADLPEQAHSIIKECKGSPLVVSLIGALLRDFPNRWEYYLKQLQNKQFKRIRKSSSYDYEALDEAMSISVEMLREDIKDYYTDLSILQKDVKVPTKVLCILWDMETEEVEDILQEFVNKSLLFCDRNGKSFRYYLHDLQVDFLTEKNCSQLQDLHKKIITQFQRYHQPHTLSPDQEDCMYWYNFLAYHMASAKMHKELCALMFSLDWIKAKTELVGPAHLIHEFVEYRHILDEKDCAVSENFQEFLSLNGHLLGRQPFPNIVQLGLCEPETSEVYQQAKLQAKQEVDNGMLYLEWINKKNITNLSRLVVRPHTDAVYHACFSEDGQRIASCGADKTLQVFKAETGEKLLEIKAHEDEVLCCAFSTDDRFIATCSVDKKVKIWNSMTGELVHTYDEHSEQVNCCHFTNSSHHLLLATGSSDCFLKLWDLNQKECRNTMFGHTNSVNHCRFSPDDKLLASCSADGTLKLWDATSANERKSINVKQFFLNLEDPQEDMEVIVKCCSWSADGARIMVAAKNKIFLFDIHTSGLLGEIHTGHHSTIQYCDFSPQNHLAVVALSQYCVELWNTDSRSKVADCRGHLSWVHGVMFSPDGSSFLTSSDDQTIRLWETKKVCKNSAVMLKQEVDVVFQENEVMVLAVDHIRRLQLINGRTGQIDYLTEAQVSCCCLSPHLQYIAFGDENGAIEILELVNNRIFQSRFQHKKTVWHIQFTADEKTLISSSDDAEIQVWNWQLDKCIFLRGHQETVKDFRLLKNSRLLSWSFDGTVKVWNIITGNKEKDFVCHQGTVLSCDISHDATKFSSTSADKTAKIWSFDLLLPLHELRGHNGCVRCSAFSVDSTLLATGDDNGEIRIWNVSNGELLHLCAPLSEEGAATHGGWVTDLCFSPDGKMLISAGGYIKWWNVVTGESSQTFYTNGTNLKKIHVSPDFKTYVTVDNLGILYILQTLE

[2] = HEK-293T viability loss after treatment – luminescence, T-cell screen hits, cytotoxicity control for TCR NF-kB inhibitor project, dose response (AID 489026); type: functional, cell-based;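 also: cells exposed to compound about 14 hours before the viability readout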
[3] = target: Serine/threonine-protein phosphatase PP1-alpha catalytic subunit (Homo sapiens, UniProt P62136); test: inhibition of protein phosphatase 1 activity – biochemical, fluorescence, dose response (AID 2394)
Vero = test: viability of Vero cells under compound – cytotoxicity control for flavivirus capping enzyme inhibitors (AID 588742); type: functional; settings: Chlorocebus sabaeus
INS1 = test: INS-1E survival protection against cytokine death – cell-based, luminescence, retest, dose response (AID 449756); type: functional; settings: Rattus norvegicus;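 also: cell death triggered by IL-1 beta plus TNF-alpha plus IFN-gamma mixture; protective hits raise ATP signal compared with cytokine alone wells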
Protein RecA = target: T2, Protein RecA (Mycobacterium tuberculosis, UniProt P9WHJ3); test: Fluorescence Cell-Free Homogeneous Dose Retest to Identify Inhibitors of RecA-Intein Splicing Activity. [Related pubchem assays (depositor defined):AID2097, AID2223, AID489010, AID492950]; type: functional
T2 sequence (P9WHJ3 whole entry): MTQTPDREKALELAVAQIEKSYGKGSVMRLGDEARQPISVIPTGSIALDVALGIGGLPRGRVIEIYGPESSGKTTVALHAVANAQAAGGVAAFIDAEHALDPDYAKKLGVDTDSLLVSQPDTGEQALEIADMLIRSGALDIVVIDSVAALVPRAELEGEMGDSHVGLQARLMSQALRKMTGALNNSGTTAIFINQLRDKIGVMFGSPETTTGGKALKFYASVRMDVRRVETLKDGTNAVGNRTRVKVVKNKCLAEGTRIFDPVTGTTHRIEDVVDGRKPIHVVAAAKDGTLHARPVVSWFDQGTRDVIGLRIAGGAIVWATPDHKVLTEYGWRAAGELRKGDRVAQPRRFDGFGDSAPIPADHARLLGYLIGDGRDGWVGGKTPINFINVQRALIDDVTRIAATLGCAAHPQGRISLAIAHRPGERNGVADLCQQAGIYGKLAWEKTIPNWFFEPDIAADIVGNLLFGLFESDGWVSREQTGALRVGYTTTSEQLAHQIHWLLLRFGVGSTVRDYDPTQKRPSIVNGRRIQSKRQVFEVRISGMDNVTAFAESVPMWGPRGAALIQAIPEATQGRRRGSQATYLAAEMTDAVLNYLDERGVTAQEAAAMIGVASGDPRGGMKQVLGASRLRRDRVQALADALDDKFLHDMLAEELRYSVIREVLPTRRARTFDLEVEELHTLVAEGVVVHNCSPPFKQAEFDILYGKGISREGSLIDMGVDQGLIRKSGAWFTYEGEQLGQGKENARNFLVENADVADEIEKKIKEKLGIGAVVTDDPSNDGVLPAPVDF

[4] = target: Heat shock protein HSP 90-alpha (Homo sapiens, UniProt P07900); test: Luminescence-based dose response biochemical high throughput screening assay for inhibitors of the Heat Shock Protein 90 (HSP90). [Related pubchem assays: 1831 (Summary AID.), 1846 (Confirmation screen.), 1789 (Primary screen.)]
[5] = microbe, parasite or virus in culture; type: functional; settings: Mycobacterium tuberculosis
[6] = target: Mitochondrial peptide methionine sulfoxide reductase (Bos taurus, UniProt P54149); type: functional;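 also: absorbance read-out, biochemical high-throughput dose-response screen for MsrA inhibitors, confirmatory; recombinant bovine MsrA coupled to E. coli TrxB with NADPH and selenocystamine; potency is for inhibitors of MsrA activity on DMSO substrate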
Streptococcus = test: GAS UMAA2166 growth inhibition – luminescence, BacTiterGlo, counter-screen for streptokinase expression inhibitor project, dose response (AID 1915); type: functional, organism-based;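 also: potency for reduction of bacterial viability or growth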
[7] = target: Protein-tyrosine kinase 2-beta (Homo sapiens, UniProt Q14289);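 also: potency of inhibitors of PYK2 kinase phosphorylation of poly-GT substrate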
[8] = Trypanosoma cruzi growth suppression in host cells – NIH3T3 host cells, beta-gal luminescence, confirmation (AID 2044); type: functional, cell-based;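 also: intracellular parasites grown in NIH/3T3 mouse fibroblasts as host cells; luminescent beta-galactosidase reporter signal from transgenic T. cruzi replicating inside host cells; inhibitors lower the luminescence signal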
[9] = target: Serine/threonine-protein phosphatase (Homo sapiens, UniProt Q9BPW0); test: inhibition of protein phosphatase 5 activity – biochemical, fluorescence, dose response (AID 2395)
[10] = target: T3, Replicative DNA helicase DnaB (Mycobacterium tuberculosis, UniProt P9WMR3); test: DnaB intein splicing inhibitors, dose response, biochemical, cell-free fluorescence (AID 449749); type: functional
T3 sequence (P9WMR3 whole entry): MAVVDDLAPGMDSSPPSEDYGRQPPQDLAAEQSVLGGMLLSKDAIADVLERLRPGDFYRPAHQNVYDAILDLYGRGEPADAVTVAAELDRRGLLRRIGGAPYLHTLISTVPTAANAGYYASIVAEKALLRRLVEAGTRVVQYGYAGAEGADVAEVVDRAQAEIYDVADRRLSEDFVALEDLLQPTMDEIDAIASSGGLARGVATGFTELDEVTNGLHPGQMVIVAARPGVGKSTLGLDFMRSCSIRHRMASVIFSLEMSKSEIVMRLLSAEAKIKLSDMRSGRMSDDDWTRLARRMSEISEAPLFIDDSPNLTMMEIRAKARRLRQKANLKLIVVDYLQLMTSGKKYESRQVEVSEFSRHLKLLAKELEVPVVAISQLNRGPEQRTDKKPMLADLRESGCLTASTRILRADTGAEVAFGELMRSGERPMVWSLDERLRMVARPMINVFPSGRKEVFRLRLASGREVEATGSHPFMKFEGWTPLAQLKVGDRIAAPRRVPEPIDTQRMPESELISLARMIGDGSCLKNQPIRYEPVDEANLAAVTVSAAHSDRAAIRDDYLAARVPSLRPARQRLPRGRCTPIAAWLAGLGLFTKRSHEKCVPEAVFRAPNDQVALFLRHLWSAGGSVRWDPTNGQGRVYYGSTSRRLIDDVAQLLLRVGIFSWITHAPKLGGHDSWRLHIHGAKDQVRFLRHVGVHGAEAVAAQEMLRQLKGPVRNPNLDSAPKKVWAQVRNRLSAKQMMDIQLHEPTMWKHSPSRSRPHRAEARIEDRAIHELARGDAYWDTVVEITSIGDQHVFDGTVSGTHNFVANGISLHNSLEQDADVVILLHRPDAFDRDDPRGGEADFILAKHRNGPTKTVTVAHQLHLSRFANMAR

[11] = system: Streptococcus sp. 'group A'; test: Streptococcus pyogenes SK(-)GAS viability under kanamycin – luminescence, BacTiterGlo, confirmation, counter-screen for streptokinase expression inhibitor project, dose response (AID 1900); type: functional, organism-based
[12] = NIH3T3 cell viability loss – ATP luminescence, mouse fibroblasts, counter-screen, dose response (AID 2010); type: functional, cell-based;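 also: cells exposed to compound for about 90 hours before reading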
[13] = target: Glyceraldehyde-3-phosphate dehydrogenase (Homo sapiens, UniProt P04406)
Bcl-2-related protein A1 [14] = target: T4, Bcl-2-related protein A1 (Mus musculus, UniProt Q07440); test: Bfl-1 binding inhibitors, SAR follow-up, biochemical, fluorescence polarization (AID 1070)
T4 sequence (Q07440 whole entry): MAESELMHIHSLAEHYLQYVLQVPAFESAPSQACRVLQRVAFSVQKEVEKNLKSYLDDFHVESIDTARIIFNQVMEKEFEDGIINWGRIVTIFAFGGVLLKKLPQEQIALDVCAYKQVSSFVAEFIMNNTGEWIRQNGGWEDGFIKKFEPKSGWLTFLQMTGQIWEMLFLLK

Genome polyprotein = Genome polyprotein (dengue virus type 2, UniProt P29990); test: flavivirus cap methylation enzyme inhibition – biochemical, confirmation dose response, primary screen (AID 588689); type: functional
Bcl-2-related protein A1 [15] = target: T4, Bcl-2-related protein A1; test: small-molecule antagonists of Bfl-1/BH3 interaction – biochemical, TR-FRET, mouse Bfl-1, confirmation (AID 621);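 also: TR-FRET binding of GST-Bfl-1 to FITC-labelled Bid peptide via terbium antibody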
Bcl-2-related protein A1 [16] = target: T4, Bcl-2-related protein A1; test: displacement of Bid BH3 peptide from Bfl-1 – biochemical, fluorescence polarization, FITC-Bid, mouse, primary screen (AID 432)
[17] = viability loss in Vero cells – cytotoxicity control for Vif-APOBEC3G degradation inhibitor project, dose response (AID 1117358); type: functional; settings: Vero
[18] = target: T5, Low molecular weight phosphotyrosine protein phosphatase (Homo sapiens, UniProt P24666); test: inhibition of human LMPTP enzyme activity – biochemical, absorbance, pNPP substrate, LMPTP-A isoform, set 2, orthogonal assay, dose response (AID 743308); type: functional
T5 sequence (P24666 whole entry): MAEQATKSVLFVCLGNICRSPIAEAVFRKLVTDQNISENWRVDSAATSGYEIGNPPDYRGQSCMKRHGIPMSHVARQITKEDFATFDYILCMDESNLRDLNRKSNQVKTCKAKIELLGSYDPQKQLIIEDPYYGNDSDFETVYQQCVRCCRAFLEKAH

[19] = target: T5, Low molecular weight phosphotyrosine protein phosphatase; test: inhibition of LMPTP-A enzymatic activity – biochemical, OMFP substrate, fluorescence intensity, set 2, dose response (AID 743307); type: functional

Sequence of Protein-tyrosine kinase 2-beta (Q14289 whole entry): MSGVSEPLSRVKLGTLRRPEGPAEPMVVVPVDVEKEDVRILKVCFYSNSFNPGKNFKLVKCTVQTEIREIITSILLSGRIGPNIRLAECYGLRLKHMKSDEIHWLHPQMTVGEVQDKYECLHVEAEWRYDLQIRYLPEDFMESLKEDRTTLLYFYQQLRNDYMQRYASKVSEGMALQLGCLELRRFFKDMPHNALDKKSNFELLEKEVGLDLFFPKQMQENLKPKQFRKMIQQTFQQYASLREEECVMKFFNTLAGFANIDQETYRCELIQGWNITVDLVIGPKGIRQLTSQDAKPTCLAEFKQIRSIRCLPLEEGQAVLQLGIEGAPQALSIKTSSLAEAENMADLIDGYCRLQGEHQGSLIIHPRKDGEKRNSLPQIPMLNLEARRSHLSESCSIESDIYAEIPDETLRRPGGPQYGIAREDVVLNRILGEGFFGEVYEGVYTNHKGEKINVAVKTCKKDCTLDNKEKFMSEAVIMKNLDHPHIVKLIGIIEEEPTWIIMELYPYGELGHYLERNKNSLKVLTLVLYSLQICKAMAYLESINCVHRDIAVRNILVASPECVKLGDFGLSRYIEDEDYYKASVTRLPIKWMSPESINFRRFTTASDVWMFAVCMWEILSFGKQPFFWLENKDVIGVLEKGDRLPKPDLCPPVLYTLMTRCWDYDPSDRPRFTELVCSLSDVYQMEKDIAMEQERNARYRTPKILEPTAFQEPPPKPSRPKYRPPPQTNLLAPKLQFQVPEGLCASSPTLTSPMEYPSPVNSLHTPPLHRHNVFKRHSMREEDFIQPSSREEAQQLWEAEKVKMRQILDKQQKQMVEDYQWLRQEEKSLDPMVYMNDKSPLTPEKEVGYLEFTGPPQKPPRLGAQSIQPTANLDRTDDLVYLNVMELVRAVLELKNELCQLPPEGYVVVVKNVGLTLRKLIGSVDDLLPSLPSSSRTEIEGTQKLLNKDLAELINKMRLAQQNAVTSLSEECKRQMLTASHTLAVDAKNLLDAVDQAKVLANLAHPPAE
Sequence of Glyceraldehyde-3-phosphate dehydrogenase (P04406 whole entry): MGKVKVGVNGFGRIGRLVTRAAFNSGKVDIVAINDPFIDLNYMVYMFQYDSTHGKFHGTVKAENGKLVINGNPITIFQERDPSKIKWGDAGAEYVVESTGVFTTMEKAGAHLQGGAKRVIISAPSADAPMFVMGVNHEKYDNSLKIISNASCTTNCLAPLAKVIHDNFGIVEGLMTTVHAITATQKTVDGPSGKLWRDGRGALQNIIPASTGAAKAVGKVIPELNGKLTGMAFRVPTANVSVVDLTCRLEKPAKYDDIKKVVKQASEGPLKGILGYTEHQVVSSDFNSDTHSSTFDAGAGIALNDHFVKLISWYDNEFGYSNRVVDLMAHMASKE
Sequence of Serine/threonine-protein phosphatase (Q9BPW0 whole entry): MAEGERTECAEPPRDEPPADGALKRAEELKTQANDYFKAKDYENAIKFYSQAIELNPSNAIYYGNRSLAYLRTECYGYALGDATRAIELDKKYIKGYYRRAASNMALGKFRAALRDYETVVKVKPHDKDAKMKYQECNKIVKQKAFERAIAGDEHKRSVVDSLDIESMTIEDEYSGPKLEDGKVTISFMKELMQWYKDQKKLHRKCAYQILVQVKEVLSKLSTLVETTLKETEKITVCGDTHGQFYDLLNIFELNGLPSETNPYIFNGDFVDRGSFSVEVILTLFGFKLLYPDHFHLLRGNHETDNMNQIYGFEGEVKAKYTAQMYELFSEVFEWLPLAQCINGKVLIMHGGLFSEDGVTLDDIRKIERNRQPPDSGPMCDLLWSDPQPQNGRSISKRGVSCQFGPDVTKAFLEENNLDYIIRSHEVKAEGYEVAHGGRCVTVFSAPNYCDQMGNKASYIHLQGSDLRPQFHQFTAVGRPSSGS
Sequence of Genome polyprotein (P29990 2492-3391 limits assumed): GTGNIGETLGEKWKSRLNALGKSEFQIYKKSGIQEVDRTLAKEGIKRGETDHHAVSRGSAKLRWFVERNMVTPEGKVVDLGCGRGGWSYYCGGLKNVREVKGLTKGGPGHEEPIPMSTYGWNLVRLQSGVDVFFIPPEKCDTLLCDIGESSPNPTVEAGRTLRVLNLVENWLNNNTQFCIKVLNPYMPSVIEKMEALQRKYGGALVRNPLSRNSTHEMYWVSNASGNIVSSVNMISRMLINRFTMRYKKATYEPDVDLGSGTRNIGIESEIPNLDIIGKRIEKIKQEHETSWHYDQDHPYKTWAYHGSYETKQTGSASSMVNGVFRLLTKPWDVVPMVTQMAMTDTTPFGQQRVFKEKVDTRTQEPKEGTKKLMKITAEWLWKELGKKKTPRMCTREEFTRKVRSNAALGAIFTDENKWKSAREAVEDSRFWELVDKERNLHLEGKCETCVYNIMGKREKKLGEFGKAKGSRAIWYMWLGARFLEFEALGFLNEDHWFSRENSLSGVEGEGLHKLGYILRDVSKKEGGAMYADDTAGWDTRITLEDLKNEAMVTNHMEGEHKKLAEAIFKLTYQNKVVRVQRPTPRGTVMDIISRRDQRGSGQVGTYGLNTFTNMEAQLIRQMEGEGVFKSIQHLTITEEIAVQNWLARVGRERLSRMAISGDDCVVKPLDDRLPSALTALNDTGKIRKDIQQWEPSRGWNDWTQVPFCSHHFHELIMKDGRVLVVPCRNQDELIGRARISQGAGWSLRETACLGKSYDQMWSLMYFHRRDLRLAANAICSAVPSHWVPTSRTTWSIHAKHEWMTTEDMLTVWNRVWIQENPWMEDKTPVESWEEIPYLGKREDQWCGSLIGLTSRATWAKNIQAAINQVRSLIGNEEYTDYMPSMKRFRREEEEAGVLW
Sequence of Serine/threonine-protein phosphatase PP1-alpha catalytic subunit (P62136 whole entry): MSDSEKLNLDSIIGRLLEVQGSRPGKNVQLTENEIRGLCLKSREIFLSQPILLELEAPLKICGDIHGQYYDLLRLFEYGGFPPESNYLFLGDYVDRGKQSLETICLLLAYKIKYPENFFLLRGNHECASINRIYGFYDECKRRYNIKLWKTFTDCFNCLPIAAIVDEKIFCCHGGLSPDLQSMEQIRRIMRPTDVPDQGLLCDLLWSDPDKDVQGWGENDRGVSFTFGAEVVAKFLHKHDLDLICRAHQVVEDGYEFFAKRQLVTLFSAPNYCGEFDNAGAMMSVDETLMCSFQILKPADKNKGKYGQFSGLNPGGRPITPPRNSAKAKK
Sequence of Mitochondrial peptide methionine sulfoxide reductase (P54149 whole entry): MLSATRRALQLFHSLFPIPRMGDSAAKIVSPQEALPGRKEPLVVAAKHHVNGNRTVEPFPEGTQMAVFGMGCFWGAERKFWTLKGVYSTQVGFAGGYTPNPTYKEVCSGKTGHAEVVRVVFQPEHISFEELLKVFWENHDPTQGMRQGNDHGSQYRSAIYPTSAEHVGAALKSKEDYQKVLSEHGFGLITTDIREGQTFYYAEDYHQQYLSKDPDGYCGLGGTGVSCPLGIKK

SMILES: Cc1ccccc1NC1=C/C(=N\S(=O)(=O)c2cccs2)c2ccccc2C1=O
- IC50 [1]: 335 nM (active)
- IC50 [2]: 440 nM (active)
- IC50 [3]: > 22.3 µM (not active)
- CC50 (Vero): 4.33 µM (active)
- AC50 (INS1): 413 nM (active)
- EC50 (Protein RecA): 654 nM (active)
- IC50 [4]: 438 nM (active)
- CC50 [5]: 3.13 µM (active)
- IC50 [6]: 692 µM (inactive)
- EC50 (Streptococcus): 4.55 µM (active)
- IC50 [7]: > 69.5 µM (not active)
- EC50 [8]: 1.04 µM (active)
- IC50 [9]: 1.83 µM (active)
- AC50 [10]: > 120 µM (inactive)
- EC50 [11]: 701 nM (active)
- EC50 [12]: 1.95 µM (active)

SMILES: CN1CCN(C2=C(Cl)C(=O)N(c3ccc(Cl)c(Cl)c3)C2=O)CC1
- IC50 [13]: > 100 µM (not active)
- EC50 (Protein RecA): 2220 nM (active)
- IC50 (Bcl-2-related protein A1 [14]): 362 nM (active)
- IC50 (Genome polyprotein): 16.9 µM (active)
- IC50 (Bcl-2-related protein A1 [15]): 580 nM (active) and 500 nM (active)
- AC50 [10]: 3.75 µM (active)
- IC50 (Bcl-2-related protein A1 [16]): 650 nM (active)

SMILES: COc1cc(C(=O)NCc2nnc(SCC(=O)Nc3nc4ccc(C)cc4s3)o2)cc(OC)c1OC
- CC50 [17]: > 40 µM (active)

SMILES: CN1CCN(c2nc(-c3ccccc3)nc3ccccc23)CC1
- IC50 [18]: > 80 µM (inactive)
- IC50 [19]: > 80 µM (inactive)
